# Values joined by “and” are separate entries in the source; they are usually repeats but may differ in a detail not shown here. Equal values may be shown once.
# What was measured:
# p21waf = p21waf protein expression in PC12 cells (Western blotting); type: cell-based; conditions: for effect of pretreatment on p21waf protein expression induced by AS101: PC12 cells pretreated before AS101
# Experimental: PC12 cells were washed in serum-free medium, resuspended to 1-5×10^6cells/ml. After 24 hours of incubation at 37° C. in culture, the cells were supplemented with 3 ml of medium (RPMI 1640 containing 10% FCS, 2% glutamine and 1 mg/ml G418 (Life Technologies, Inc.). After another 24 hours, cells were resuspended and maintained in the selection medium. After 3-4 weeks in selective medium, transfected cells were analyzed for via Western blotting. Results are expressed as percent p21 as compared to the negative (no drug) control.
# PC12 cell extracts (20 μg/lane of protein) boiled under reducing conditions, were subjected to electrophoresis on 7.5 and 12.5% polyacrylamide gels and electro-transferred to nitrocellulose membranes. The membrane was blocked for one hour with 10% powdered milk in 0.2% Tween 20, Tris-buffered saline, and then incubated with the appropriate specific detecting antibodies. Immunoreactive proteins were detected with horseradish peroxidase-conjugated secondary antibodies (Amersham, Arlington Heights, Ill.) and a chemiluminescence reagent. For immunoprecipitation studies, immune complexes were precipitated with Protein A-Sepharose (Pharmacia) and, following electrophoresis, were blotted with anti-phosphoserine or anti-phosphotyrosine antibodies.
# PC12 cells [1] = experiment: Detection of apoptosis in PC12 cells (NGF withdrawal); type: cell-based
# Experimental: (§1) To assess the neuroprotective effects of AS101, PC12 cells were maintained in Dulbecco's modified Eagle's medium supplemented with 8% heat inactivated horse serum, 8% heat inactivated fetal bovine serum, glutamine (5 mM) and 50 μg/ml gentamycin at 37° C.
# The percentage of cells undergoing apoptosis was quantitatively determined using an Apoptosis Detection kit, on the basis of their ability to bind annexin V and exclude iodide, and also by an in situ cell detection kit incorporating HTC labeling and TUNEL.
# PC12 cells [2] = experiment: Cell cycle distribution of PC12 cells (propidium iodide flow cytometry); type: cell-based
# Experimental: as §1
# Cell cycle distribution studies were performed as previously described. Cells were trypsinyzed and suspended for 10 minutes at room temperature at 1.106/ml buffer containing lmg/ml RNAse, 1% NP-40, 10 μg/ml propidium iodide and 0.1% sodium citrate. Propidium iodide fluorescence was measured using a FACStar plus flow cytometer equipped with an air-cooled argon laser delivering 15 mW of light at […]. The red fluorescence from 1.104 cells from each sample was collected through a 610 nm bandpass filter.
# PC12 cells [3] = experiment: Neuronal differentiation of PC12 cells; type: cell-based
# Experimental: as §1
# [4] = test system: PC12 cells expressing the dominant negative form (N17) of ras; experiment: Neuronal differentiation of PC12 cells expressing dominant negative ras; type: cell-based
# Experimental: as §1
# The ras Asn-17 gene was then cloned into a mammalian expression vector. Transfection of PC12 cells with the plasmid DNA was performed with the calcium phosphate precipitation technique as described previously.
# [5] = test system: PC12 cells expressing a point mutation of Cys118 of P21ras; experiment: Neuronal differentiation of PC12 cells expressing Cys118 point mutation of p21ras; type: cell-based
# recombinant p21 ras = recombinant p21 ras (Homo sapiens, UniProt P01112); experiment: Activation of recombinant p21ras by GDP/GTP exchange; type: biochemical; conditions: incubated 10 minutes
# Chain of recombinant p21 ras (P01112 whole entry, species assumed): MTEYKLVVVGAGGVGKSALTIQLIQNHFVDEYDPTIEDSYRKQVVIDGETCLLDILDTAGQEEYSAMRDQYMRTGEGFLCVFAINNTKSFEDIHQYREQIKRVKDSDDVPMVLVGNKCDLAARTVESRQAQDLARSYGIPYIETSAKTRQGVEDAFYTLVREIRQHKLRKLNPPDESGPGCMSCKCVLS
# Experimental: AS101 (ammonium trichloro(dioxoethylene-O,O′)tellurate) was incubated with recombinant p21^ras for 10 minutes;
# (§2) The effect of AS101 on signaling pathways that are controlled by Ras superfamily GTPases was screened by parallel analysis of the activation of the Ras family GTPases and their effectors (FIG. 1). The primary methods used for studying activation of different Ras superfamily GTPases were: (a) pull down of activated Ras superfamily GTPases from cell lysates, by binding of the specific recombinant purified effector GTPase binding domains to the activated GTP bound form. Subsequent to the pull down of the activated GTPases, the proteins were detected and quantified by western blotting; (b) activation of GTPases effectors such as Raf or RAC, by reporter gene assays; and (c) direct immunoprecipitation kinase assays (FIG. 2).
# P21ras was cleaved by cyanogen bromide. This process yielded three fragments, each containing one cysteine residue: fragment 1 containing Cys51 (Mr 7,203); fragment 2 containing Cys60 (Mr 4,540) and fragment 3 containing Cys118 (Mr 6223). To confirm that Cys118 is the molecular target of AS101, a form of p21ras was generated identical to the wild type enzyme except that Cys118 is changed by a Ser residue (referred to as p21rasC118S). […] The stimulation by AS101 of nucleotide exchange on GDP-preloaded p21rasC118S in vitro was determined.
# Erk = experiment: Kinase assay of immunoprecipitated Erk with myelin basic protein as substrate; type: cell-based; conditions: Jurkat T cells or NIH3T3 cells
# Experimental: NIH3T3 cells were incubated with AS101 for 10 minutes with or without famesyl transferase inhibitor.
# Endogenous JNK and erk were immunoprecipitated from cell lysates with specific antibodies and their activities measured by using p^32 ATP and glutathione s-transferase (GST) e-jun or myelin basic protein (MPB) respectively, as the substrate. Samples were run on SDS-polyacrylamide gel electrophoresis gels and subjected to Phosphorlmager analysis.
# as §2
# c-raf-1 = experiment: Activation of p21ras downstream effector c-raf-1; type: cell-based; conditions: cells incubated with AS101 for 15 minutes
# From the text: as §2
# spinal cord injury = experiment: Rat spinal cord injury model (weight-drop contusion); type: in vivo
# Experimental: Twenty rats were divided into 4 treatment groups (control, AS101 15; 20; 30 μg). Experimental spinal cord injury (SCI) was induced via weight-drop contusion models that result in significant locomotor deficits, including lack of coordination and trunk stability. AS101 was applied topically to the damaged area and rats were treated for 21 days with AS101 administrated i.v. At the end of the first week following SCI, and on days 14 and 21, recovery was determined using Basso, Beattie and Bresnahan (BBB) locomotor scale score.
# [6] = rats; intravenous and intramuscular administration; cited from earlier work
smiles,measurement,setting,value
COC(=O)[C@H](CCSC)NC(=O)c1ccc(NC[C@@H](N)CS)cc1-c1ccccc1 [farnesyl transferase inhibitor],effect of pretreatment on p21waf protein expression induced by AS101,p21waf,abolished
COc1cccc(-c2cc(=O)c3ccccc3o2)c1N [PD98059],effect of pretreatment on p21waf protein expression induced by AS101,p21waf,abolished
"Cl[TeH]1(Cl)(Cl)OCCO1 [AS101, ammonium trichloro(dioxyethylene-O,O′)tellurate]",Apoptotic,PC12 cells [1]; AS101 0.1 μg/ml,8.8%
same,Apoptotic,PC12 cells [1]; AS101 0.5 μg/ml,5.3%
same,Apoptotic,PC12 cells [1]; AS101 1 μg/ml,6.6%
same,G0/G1,PC12 cells [2]; AS101 0.1 μg/ml,39.7%
same,G2/M,PC12 cells [2]; AS101 0.1 μg/ml,16.4%
same,S,PC12 cells [2]; AS101 0.1 μg/ml,43.9%
same,G2/M,PC12 cells [2]; AS101 0.5 μg/ml,27.9%
same,S,PC12 cells [2]; AS101 0.5 μg/ml,4.0%
same,G0/G1,"PC12 cells [2]; AS101 0.5 μg/ml, 24 hours",68.1%
same,G0/G1,PC12 cells [2]; AS101 1 μg/ml,67.5%
same,G2/M,PC12 cells [2]; AS101 1 μg/ml,29%
same,S,PC12 cells [2]; AS101 1 μg/ml,3.5%
same,G0/G1,PC12 cells [2]; NGF + anti NGF Ab + AS101,68%
same,G2/M,PC12 cells [2]; NGF + anti NGF Ab + AS101,27.6%
same,S,PC12 cells [2]; NGF + anti NGF Ab + AS101,4.4%
same,neuronal differentiation,PC12 cells [3],induced neuronal differentiation in a dose-dependent manner
same,optimal doses for inducing neuronal differentiation,PC12 cells [3],0.5 µg/mL and 1 µg/mL
same,differentiation,[4],did not result in their differentiation
same,cellular differentiation,[5],did not result in cellular differentiation
same,binding to and activation of p21 ras via GDP/GTP exchange,recombinant p21 ras,directly binds to recombinant p21 ras and activates it via GDP/GTP exchange
same,activation of ras and downstream effector Erk,Erk,"activated ras and its downstream effector, Erk"
same,activation of c-raf-1,c-raf-1,could activate
same,p21waf protein expression,"p21waf; PC12 cells, 24 h, dose-dependent",pronounced increase
same,reduction in body weight following injury,spinal cord injury,attenuated
same,mortality,"spinal cord injury; 20 μg AS101 group, two deaths in control group",no mortality
same,mortality,"spinal cord injury; 30 μg AS101 group, two deaths in control group",no mortality
same,tolerability / adverse side effects,spinal cord injury; administration after spinal cord injury,well tolerated
same,BBB locomotor scale score (functional recovery),"spinal cord injury; high dose AS101, repeated administration, control 1±1.7",3±2
same,deaths,"spinal cord injury; low dose group, two deaths in control group",one
same,therapeutic effect during second and third weeks of treatment,spinal cord injury; second and third weeks,no beneficial effect
same,LD50 relative to immunologically effective dose,[6],500-1000 folds
